“And” between values parts separate entries of the source, which are not always exact repeats. Identical values can stand only once. Like-named read-outs stand apart in the source and are kept apart here. *1 amine or outer side, *2 acyl side, *3 side chain or, on linkers, in order; H or OH if unused. Where a SMILES comes first, the peptide text is derived from it. Side-chain parts run from the residue outwards. [ ]: non-standard residue; d: D form. The star is where a group is joined. C20 diacid = O=C(O)CCCCCCCCCCCCCCCCCCC(=O)*; γGlu = O=C(O)[C@H](CCC(=O)[*:2])N[*:1]; NMeI = CC[C@H](C)[C@H](NC)C(=O)O; αMeL = CC(C)C[C@](C)(N)C(=O)O; AEEA = NCCOCCOCC(=O)O
Assays:
[1] = target: T1, human CRHR2 (Homo sapiens, UniProt Q13324); assay: Human CRHR2 cAMP assay (HTRF) in HEK293 cells stably expressing human CRHR2; assay type: cell-based; details: HEK293 cells overexpressing human CRHR2; relative EC50, maximum 10 nM human UCN2; mean ± SE; read-out: hCRHR2 cAMP EC50 (pM, ± SE)
T1 construct: expressed in transfected cells
T1 sequence (Q13324 1-438 isoform Q13324-2): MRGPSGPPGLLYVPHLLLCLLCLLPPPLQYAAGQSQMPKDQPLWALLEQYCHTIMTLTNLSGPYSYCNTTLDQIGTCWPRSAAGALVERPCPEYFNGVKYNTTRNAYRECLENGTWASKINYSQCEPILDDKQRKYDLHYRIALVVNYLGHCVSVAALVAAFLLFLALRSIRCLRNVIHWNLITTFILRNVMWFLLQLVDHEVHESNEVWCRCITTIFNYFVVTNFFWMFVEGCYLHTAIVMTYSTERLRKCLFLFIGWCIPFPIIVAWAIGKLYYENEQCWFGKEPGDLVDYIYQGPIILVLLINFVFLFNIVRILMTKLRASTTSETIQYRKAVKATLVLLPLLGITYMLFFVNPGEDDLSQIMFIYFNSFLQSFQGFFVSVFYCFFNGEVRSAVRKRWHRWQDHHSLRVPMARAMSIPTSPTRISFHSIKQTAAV
Outline: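 Peptide-stimulated cAMP was measured in stable HEK293 lines by HTRF ratio (665/620 nm), converted to pmol/well via standard curve. Assay buffer contained 0.25 mM IBMX, 0.1% casein and 5 mM HEPES pH 7.4. CRHR2b cells (5,000/well) were stimulated 30 min at room temperature; CRHR1 cells (25,000/well) 1 h at 37 °C.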

[2] = Pharmacokinetics in Sprague Dawley rats, single subcutaneous or intravenous dose (incl. 10, 30, 100 nmol/kg dose response); assay type: in vivo
[3] = male, Sprague Dawley, rat, plasma, iv, 196 nmol/kg, single intravenous dose 196 nmol/kg, individual animal
[4] = male, Sprague Dawley, rat, plasma, iv, 196 nmol/kg, single intravenous dose 196 nmol/kg, mean
[5] = single intravenous dose 196 nmol/kg, male Sprague Dawley rats, individual animal
[6] = single subcutaneous dose 196 nmol/kg, male Sprague Dawley rats, individual animal
[7] = male, Sprague Dawley, rat, plasma, iv, 201 nmol/kg, single intravenous dose 201 nmol/kg, individual animal
[8] = male, Sprague Dawley, rat, plasma, iv, 201 nmol/kg, single intravenous dose 201 nmol/kg, mean
[9] = single intravenous dose 201 nmol/kg, male Sprague Dawley rats, individual animal
[10] = single subcutaneous dose 201 nmol/kg, male Sprague Dawley rats, individual animal

Compound: CC[C@H](C)[C@H](NC)C(=O)N[C@H](C(=O)N[C@H](C(=O)N[C@@H](CO)C(=O)N[C@@H](CC(C)C)C(=O)N[C@@H](CC(=O)O)C(=O)N[C@H](C(=O)N1CCC[C@H]1C(=O)N[C@H](C(=O)NCC(=O)N[C@@](C)(CC(C)C)C(=O)N[C@@H](CC(C)C)C(=O)N[C@@H](CCC(N)=O)C(=O)N[C@@H](CCCCN)C(=O)N[C@@H](CC(C)C)C(=O)N[C@H](C(=O)N[C@@H](CCC(=O)O)C(=O)N[C@@H](CCC(N)=O)C(=O)N[C@@H](CCC(=O)O)C(=O)N[C@@H](CCCCN)C(=O)N[C@@H](CCC(N)=O)C(=O)N[C@@H](CCC(=O)O)C(=O)N[C@@H](CCCCN)C(=O)N[C@@H](CCC(=O)O)C(=O)N[C@@H](CCCCN)C(=O)N[C@@H](CCC(N)=O)C(=O)N[C@@H](CCC(N)=O)C(=O)N[C@@H](C)C(=O)N[C@@H](CCCCNC(=O)COCCOCCNC(=O)COCCOCCNC(=O)CC[C@H](NC(=O)CCCCCCCCCCCCCCCCCCC(=O)O)C(=O)O)C(=O)N[C@@H](CCC(=O)O)C(=O)N[C@@H](CC(N)=O)C(=O)N[C@H](C(=O)N[C@@H](CCC(=O)O)C(=O)N[C@H](C(=O)N[C@@H](CC(C)C)C(=O)N[C@@H](C)C(=O)N[C@@H](CCC(N)=O)C(=O)N[C@H](C(N)=O)C(C)C)[C@@H](C)CC)[C@@H](C)O)[C@@H](C)CC)[C@@H](C)CC)C(C)C)[C@@H](C)O)C(C)C [SEQ ID NO: 49, (NMeI) VTSLDVPIG αMeL LQKLIEQEKQEKEKQQAK((2-[2-(2-Amino-ethoxy)-ethoxy]-acetyl)2-γE-CO-(CH2)18-CO2H)ENTEILAQV-NH2] (H-[NMeI]VTSLDVPIG[αMeL]LQKLIEQEKQEKEKQQAK([AEEA-AEEA-γGlu-C20 diacid])ENTEILAQV-NH2)
- EC50 [1]: 6.6 ± 0.9 pM
- clearance [2, 3]: 4.72 mL/h/kg
- half-life [2, 3]: 17.8 h
- clearance [2, 4]: 4.15 mL/h/kg
- half-life [2, 4]: 20.4 h
- half-life ([2]; male, Sprague Dawley, rat, plasma, sc, 196 nmol/kg, single subcutaneous dose 196 nmol/kg, individual animal): 19.1 h
- CL/F ([2]; male, Sprague Dawley, rat, plasma, sc, 196 nmol/kg, single subcutaneous dose 196 nmol/kg, individual animal, read-out: CL/F (converted)): 11.5 mL/h/kg
- half-life ([2]; male, Sprague Dawley, rat, plasma, sc, 196 nmol/kg, single subcutaneous dose 196 nmol/kg, mean): 18.4 h
- CL/F ([2]; male, Sprague Dawley, rat, plasma, sc, 196 nmol/kg, single subcutaneous dose 196 nmol/kg, mean, read-out: CL/F (converted)): 10.6 mL/h/kg
- Tmax ([2]; male, Sprague Dawley, rat, plasma, sc, 196 nmol/kg, single subcutaneous dose 196 nmol/kg, mean, read-out: Tmax): 18 h
- AUC0-inf ([2]; rat, plasma, sc, single subcutaneous dose 196 nmol/kg, male Sprague Dawley rats, mean, read-out: AUC0-inf): 18.9 µM·h
- Cmax ([2]; rat, plasma, sc, single subcutaneous dose 196 nmol/kg, male Sprague Dawley rats, mean, read-out: Cmax): 394 nM
- AUC0-inf ([2]; rat, plasma, single intravenous dose 196 nmol/kg, male Sprague Dawley rats, mean, read-out: AUC0-inf): 47.7 µM·h
- C0 ([2]; rat, plasma, single intravenous dose 196 nmol/kg, male Sprague Dawley rats, mean, read-out: C0): 2840 nM
- AUC0-inf [2, 5]: 41.5 µM·h and 53.1 µM·h and 48.4 µM·h
- C0 [2, 5]: 2790 nM and 2610 nM and 3110 nM
- CL [2, 5]: 3.69 mL/h/kg and 4.05 mL/h/kg
- T1/2 [2, 5]: 21.7 h and 21.6 h
- AUC0-inf [2, 6]: 17.1 µM·h and 22.4 µM·h and 17.3 µM·h
- CL/F [2, 6]: 8.76 mL/h/kg and 11.4 mL/h/kg
- Cmax [2, 6]: 340 nM and 474 nM and 367 nM
- T1/2 [2, 6]: 16.0 h and 20.2 h
- Tmax [2, 6]: 24 h and 6 h

Compound: CC[C@H](C)[C@H](NC)C(=O)N[C@H](C(=O)N[C@H](C(=O)N[C@@H](CO)C(=O)N[C@@H](CC(C)C)C(=O)N[C@@H](CC(=O)O)C(=O)N[C@H](C(=O)N1CCC[C@H]1C(=O)N[C@H](C(=O)NCC(=O)N[C@@](C)(CC(C)C)C(=O)N[C@@H](CC(C)C)C(=O)N[C@@H](CCC(N)=O)C(=O)N[C@@H](CCCCN)C(=O)N[C@@H](CC(C)C)C(=O)N[C@@H](CC(C)C)C(=O)N[C@@H](CCC(=O)O)C(=O)N[C@@H](CCC(N)=O)C(=O)N[C@@H](CCC(=O)O)C(=O)N[C@@H](CCCNC(=N)N)C(=O)N[C@@H](C)C(=O)N[C@@H](CCC(=O)O)C(=O)N[C@@H](CCCCN)C(=O)N[C@@H](C)C(=O)N[C@@H](CCCNC(=N)N)C(=O)N[C@@H](CCC(N)=O)C(=O)N[C@@H](CCC(N)=O)C(=O)N[C@@H](C)C(=O)N[C@@H](CCCCNC(=O)COCCOCCNC(=O)COCCOCCNC(=O)CC[C@H](NC(=O)CCCCCCCCCCCCCCCCCCC(=O)O)C(=O)O)C(=O)N[C@@H](CCC(=O)O)C(=O)N[C@@H](C)C(=O)N[C@@H](C)C(=O)N[C@@H](CCC(=O)O)C(=O)N[C@H](C(=O)N[C@@H](CC(C)C)C(=O)N[C@@H](C)C(=O)N[C@@H](CCC(N)=O)C(=O)N[C@H](C(N)=O)C(C)C)[C@@H](C)CC)[C@@H](C)CC)C(C)C)[C@@H](C)O)C(C)C [SEQ ID NO: 50, (NMeI) VTSLDVPIG αMeL LQKLLEQERAEKARQQAK((2-[2-(2-Amino-ethoxy)-ethoxy]-acetyl)2-γE-CO-(CH2)18-CO2H)EAAEILAQV-NH2] (H-[NMeI]VTSLDVPIG[αMeL]LQKLLEQERAEKARQQAK([AEEA-AEEA-γGlu-C20 diacid])EAAEILAQV-NH2)
- EC50 [1]: 22.4 ± 3.6 pM
- clearance [2, 7]: 3.37 mL/h/kg
- half-life [2, 7]: 20.3 h
- clearance [2, 8]: 2.93 mL/h/kg
- half-life [2, 8]: 19.2 h
- half-life ([2]; male, Sprague Dawley, rat, plasma, sc, 201 nmol/kg, single subcutaneous dose 201 nmol/kg, individual animal): 19.7 h
- CL/F ([2]; male, Sprague Dawley, rat, plasma, sc, 201 nmol/kg, single subcutaneous dose 201 nmol/kg, individual animal, read-out: CL/F (converted)): 7.55 mL/h/kg
- Tmax ([2]; male, Sprague Dawley, rat, plasma, sc, 201 nmol/kg, single subcutaneous dose 201 nmol/kg, individual animal, read-out: Tmax): 24 h
- half-life ([2]; male, Sprague Dawley, rat, plasma, sc, 201 nmol/kg, single subcutaneous dose 201 nmol/kg, mean): 17.1 h
- CL/F ([2]; male, Sprague Dawley, rat, plasma, sc, 201 nmol/kg, single subcutaneous dose 201 nmol/kg, mean, read-out: CL/F (converted)): 7.53 mL/h/kg
- Tmax ([2]; male, Sprague Dawley, rat, plasma, sc, 201 nmol/kg, single subcutaneous dose 201 nmol/kg, mean, read-out: Tmax): 24 h
- AUC0-inf ([2]; rat, plasma, sc, single subcutaneous dose 201 nmol/kg, male Sprague Dawley rats, mean, read-out: AUC0-inf): 26.8 µM·h
- Cmax ([2]; rat, plasma, sc, single subcutaneous dose 201 nmol/kg, male Sprague Dawley rats, mean, read-out: Cmax): 552 nM
- AUC0-inf ([2]; rat, plasma, single intravenous dose 201 nmol/kg, male Sprague Dawley rats, mean, read-out: AUC0-inf): 69.2 µM·h
- C0 ([2]; rat, plasma, single intravenous dose 201 nmol/kg, male Sprague Dawley rats, mean, read-out: C0): 5290 nM
- AUC0-inf [2, 9]: 59.6 µM·h and 74.2 µM·h and 73.9 µM·h
- C0 [2, 9]: 5560 nM and 4360 nM and 5960 nM
- CL [2, 9]: 2.71 mL/h/kg and 2.72 mL/h/kg
- T1/2 [2, 9]: 18.3 h and 19.0 h
- AUC0-inf [2, 10]: 26.7 µM·h and 25.1 µM·h and 28.7 µM·h
- CL/F [2, 10]: 8.03 mL/h/kg and 7.01 mL/h/kg
- Cmax [2, 10]: 577 nM and 460 nM and 618 nM
- T1/2 [2, 10]: 14.9 h and 16.7 h

From patent US20250163119A1, “COMPOUNDS FOR THE TREATMENT OF DIABETES OR OBESITY” (Eli Lilly and Company, priority 2023, published 2025)
